According to patent publication US9670231B2, “Fused tricyclic amide compounds as multiple kinase inhibitors” (BEIGENE, LTD., priority 2013, dated 2017):

Key:
Assay type in all cases: biochemical
[1] = biological target: B-Raf (V600E) (Homo sapiens (Human), UniProt P15056, V600E); assay: Raf IC50 assay, TR-FRET, B-Raf (V600E); details: 0.1 mM ATP; read-out: IC50 BRAF-V600E
Procedure: The enzyme was incubated with the compounds disclosed herein at room temperature for 60 minutes and the reactions were initiated by the addition of ATP and GST-MEK1. After reaction at room temperature for 60 minutes, an equal volume of stop/detection solution was added according to the manufacture's instruction (CisBio Bioassays). […] The IC50 for each compound was derived from fitting the dose-response % inhibition data to the four-parameter logistic model by Graphpad Prism software.

[2] = biological target: WT EGFR kinase domain (Homo sapiens (Human), UniProt P00533); assay: EGFR enzymatic assay, TR-FRET, WT EGFR
Procedure: (§1) Compounds disclosed herein were tested against WT EGFR kinase domain (aa.669-1210, Carna Biosciences, 08-115), EGFR T790M/L858R kinase domain (aa.669-1210, Carna Biosciences, 08-510) and EGFR L858R kinase domain (aa.669-1210, Carna Biosciences, 08-502) in assays based on time-resolved fluorescence-resonance energy transfer methodology. The assay was carried out in 384-well low volume black plate in a reaction mixture containing EGFR kinases, 20 LM for EGFR WT and T790M/L858R, and 125 LM for EGFR L858R), biotin-TK substrate and 0-5 LM compounds in buffer containing 50 mM HEPES pH7.5, 10 mM MgCl2, 1 mM EGTA, 0.01% Brij-35, 2.5 mM DTT, 0.1% BSA. The kinase was incubated with the compounds disclosed herein at room temperature for 120 minutes and the reaction was initiated by the addition of ATP and biotin-TK substrate. After reaction at room temperature for 30 minutes, an equal volume of stop/detection solution was added according to the manufacture's instruction (CisBio Bioassays). The stop/detection solution contained TK-Antibody-Cryptate and Streptavidin-XL665 in buffer containing 25 mM Tris pH7.4, 400 mM KF, 50 mM EDTA, 0.01% BSA, 0.01% Triton X-100. Plates were sealed and incubated at room temperature for 1 hour, and the TR-FRET signals were read on BMG PHERAstar FS instrument. The IC50 of an inhibitor was derived from fitting the % inhibition data at each compound concentration to the four-parameter logistic equation by Graphpad Prism software.

[3] = biological target: EGFR L858R kinase domain (Homo sapiens (Human), UniProt P00533, L858R); assay: EGFR enzymatic assay, TR-FRET, EGFR L858R
Procedure: as §1

[4] = biological target: EGFR T790M/L858R kinase domain (Homo sapiens (Human), UniProt P00533, L858R/T790M); assay: EGFR enzymatic assay, TR-FRET, EGFR T790M/L858R
Procedure: as §1

Chain of WT EGFR kinase domain (P00533 669-1210): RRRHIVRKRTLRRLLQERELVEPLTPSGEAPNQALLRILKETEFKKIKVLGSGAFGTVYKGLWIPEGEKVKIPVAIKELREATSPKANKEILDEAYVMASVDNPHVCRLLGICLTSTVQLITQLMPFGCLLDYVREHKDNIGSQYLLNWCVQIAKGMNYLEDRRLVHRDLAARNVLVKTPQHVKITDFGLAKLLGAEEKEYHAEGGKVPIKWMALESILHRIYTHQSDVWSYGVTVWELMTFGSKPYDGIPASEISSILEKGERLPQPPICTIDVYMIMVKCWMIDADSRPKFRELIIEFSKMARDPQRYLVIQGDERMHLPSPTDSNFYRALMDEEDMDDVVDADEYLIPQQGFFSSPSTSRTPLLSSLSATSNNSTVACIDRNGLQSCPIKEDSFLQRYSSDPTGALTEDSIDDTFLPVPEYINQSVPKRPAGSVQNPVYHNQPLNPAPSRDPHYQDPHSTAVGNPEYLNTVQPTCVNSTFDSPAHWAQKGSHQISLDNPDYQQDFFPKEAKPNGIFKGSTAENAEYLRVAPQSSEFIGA
Chain of EGFR T790M/L858R kinase domain (P00533 669-1210 T790M/L858R): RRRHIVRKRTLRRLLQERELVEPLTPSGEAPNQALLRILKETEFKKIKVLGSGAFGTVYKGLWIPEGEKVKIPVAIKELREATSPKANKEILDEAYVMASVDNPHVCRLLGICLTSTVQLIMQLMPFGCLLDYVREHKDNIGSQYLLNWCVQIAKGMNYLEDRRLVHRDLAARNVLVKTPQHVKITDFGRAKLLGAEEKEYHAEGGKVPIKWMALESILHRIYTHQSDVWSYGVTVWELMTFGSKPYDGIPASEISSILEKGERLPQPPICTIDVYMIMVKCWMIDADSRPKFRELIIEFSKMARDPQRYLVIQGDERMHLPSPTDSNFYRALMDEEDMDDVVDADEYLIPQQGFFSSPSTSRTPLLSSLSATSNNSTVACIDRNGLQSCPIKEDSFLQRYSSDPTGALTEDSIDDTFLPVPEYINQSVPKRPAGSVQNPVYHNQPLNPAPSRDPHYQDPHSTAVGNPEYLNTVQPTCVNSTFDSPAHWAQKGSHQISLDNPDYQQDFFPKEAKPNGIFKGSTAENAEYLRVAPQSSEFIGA
Chain of EGFR L858R kinase domain (P00533 669-1210 L858R): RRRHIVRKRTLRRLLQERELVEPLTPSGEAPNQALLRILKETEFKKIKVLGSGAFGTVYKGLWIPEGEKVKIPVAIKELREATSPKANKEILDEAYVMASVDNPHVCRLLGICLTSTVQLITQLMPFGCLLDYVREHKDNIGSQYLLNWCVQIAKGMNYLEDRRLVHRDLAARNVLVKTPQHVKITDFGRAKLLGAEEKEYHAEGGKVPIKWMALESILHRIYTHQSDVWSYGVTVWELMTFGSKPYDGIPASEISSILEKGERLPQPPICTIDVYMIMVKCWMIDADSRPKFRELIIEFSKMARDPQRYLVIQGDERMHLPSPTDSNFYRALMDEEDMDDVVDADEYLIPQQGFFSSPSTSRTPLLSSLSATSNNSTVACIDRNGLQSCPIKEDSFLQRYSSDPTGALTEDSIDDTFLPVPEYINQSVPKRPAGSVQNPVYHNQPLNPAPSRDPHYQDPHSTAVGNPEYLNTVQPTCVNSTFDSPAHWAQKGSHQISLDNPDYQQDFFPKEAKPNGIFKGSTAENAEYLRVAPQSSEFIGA
Chain of B-Raf (V600E) (P15056 whole entry V600E): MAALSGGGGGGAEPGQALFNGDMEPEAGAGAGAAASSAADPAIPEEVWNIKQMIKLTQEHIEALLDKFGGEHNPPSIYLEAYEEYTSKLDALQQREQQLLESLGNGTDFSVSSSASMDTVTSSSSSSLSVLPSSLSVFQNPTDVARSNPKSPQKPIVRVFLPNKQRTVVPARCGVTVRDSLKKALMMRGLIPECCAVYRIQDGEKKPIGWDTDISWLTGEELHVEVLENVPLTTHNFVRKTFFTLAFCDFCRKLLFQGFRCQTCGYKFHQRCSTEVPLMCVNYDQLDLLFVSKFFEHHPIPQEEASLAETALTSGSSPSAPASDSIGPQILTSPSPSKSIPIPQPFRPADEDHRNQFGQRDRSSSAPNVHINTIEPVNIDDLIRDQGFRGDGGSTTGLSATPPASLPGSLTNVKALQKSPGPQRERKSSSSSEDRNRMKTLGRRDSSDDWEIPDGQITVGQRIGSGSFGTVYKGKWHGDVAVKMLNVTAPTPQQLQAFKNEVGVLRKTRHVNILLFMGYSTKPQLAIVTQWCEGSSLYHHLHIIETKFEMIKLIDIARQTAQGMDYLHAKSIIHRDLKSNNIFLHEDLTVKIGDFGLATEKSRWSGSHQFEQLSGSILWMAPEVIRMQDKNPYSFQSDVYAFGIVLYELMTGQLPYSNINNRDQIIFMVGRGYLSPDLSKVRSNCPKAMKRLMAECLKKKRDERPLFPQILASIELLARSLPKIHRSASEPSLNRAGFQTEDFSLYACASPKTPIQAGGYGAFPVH

Row | SMILES | IC50 [1] | IC50 [2] | IC50 [3] | IC50 [4]
1 | CCCCCCCCCC(=O)N[C@@H]1[C@H]2Oc3ccc(Oc4ccnc5c4CCC(=O)N5)cc3[C@@H]12 [Compound 1.70] | 24 nM | 628 nM | 230 nM | 1300 nM
2 | CN(C)C1CCN(c2ccc(C(=O)N[C@@H]3[C@H]4Oc5ccc(Oc6ccnc7c6CCC(=O)N7)cc5[C@@H]34)cc2C(F)(F)F)CC1 [Compound 1.71] | 10 nM | 2.7 nM | 2.1 nM | 21 nM
3 | COc1cc(C(=O)N[C@@H]2[C@H]3Oc4ccc(Oc5ccnc6c5CCC(=O)N6)cc4[C@@H]23)ccc1CN1CCN(C)CC1 [Compound 1.72] | 7.7 nM | 3 nM | 1 nM | 32 nM
4 | CCN1CCN(Cc2ccc(C(=O)N[C@@H]3[C@H]4Oc5ccc(Oc6ccnc7c6CCC(=O)N7)cc5[C@@H]34)cc2OC)CC1 [Compound 1.73] | 6.9 nM | 1.8 nM | 0.91 nM | 34 nM
5 | CCN1CCC(Cc2ccc(C(=O)N[C@@H]3[C@H]4Oc5ccc(Oc6ccnc7c6CCC(=O)N7)cc5[C@@H]34)cc2C(F)(F)F)CC1 [Compound 1.74, 4-((1-ethylpiperidin-4-yl)methyl)-N-((1S,1aS,6bS)-5-((7-oxo-5,6,7,8-tetrahydro-1,8-naphthyridin-4-yl)oxy)-1a,6b-dihydro-1H-cyclopropa[b]benzofuran-1-yl)-3-(trifluoromethyl)benzamide] | 10 nM | 0.74 nM | 0.17 nM | 0.2 nM
6 | CCN1CCC(=Cc2ccc(C(=O)N[C@@H]3[C@H]4Oc5ccc(Oc6ccnc7c6CCC(=O)N7)cc5[C@@H]34)cc2C(F)(F)F)CC1 [Compound 1.75, 4-((1-ethylpiperidin-4-ylidene)methyl)-N-((1S,1aS,6bS)-5-((7-oxo-5,6,7,8-tetrahydro-1,8-naphthyridin-4-yl)oxy)-1a,6b-dihydro-1H-cyclopropa[b]benzofuran-1-yl)-3-(trifluoromethyl)benzamide] | 21 nM | 1.3 nM | 0.26 nM | 0.18 nM
7 | O=C1CCc2c(Oc3ccc4c(c3)[C@H]3[C@H](NC(=O)c5ccc(CO)c(C(F)(F)F)c5)[C@H]3O4)ccnc2N1 [Compound 1.76, 4-(hydroxymethyl)-N-((1S,1aS,6bS)-5-((7-oxo-5,6,7,8-tetrahydro-1,8-naphthyridin-4-yl)oxy)-1a,6b-dihydro-1H-cyclopropa[b]benzofuran-1-yl)-3-(trifluoromethyl)benzamide] | 3.7 nM | 4.2 nM | 18 nM | 31 nM
8 | CCN1CCN(Cc2ccc(C(=O)N[C@@H]3[C@H]4Oc5ccc(Oc6ccnc7c6CCC(=O)N7)cc5[C@@H]34)cc2OC(F)(F)F)CC1 [Compound 1.78, 4-((4-ethylpiperazin-1-yl)methyl)-N-((1S,1aS,6bS)-5-((7-oxo-5,6,7,8-tetrahydro-1,8-naphthyridin-4-yl)oxy)-1a,6b-dihydro-1H-cyclopropa[b]benzofuran-1-yl)-3-(trifluoromethoxy)benzamide] | 10 nM | 1.2 nM | 0.79 nM | 8 nM
9 | CNC(=O)c1cc(Oc2ccc3c(c2)[C@H]2[C@H](NC(=O)c4ccc(CN5CCN(C)CC5)c(C(F)(F)F)c4)[C@H]2O3)ccn1 [Compound 2.4] | 49 nM | 6.8 nM | 4.1 nM | 7.3 nM
10 | CCN1CCN(Cc2ccc(C(=O)N[C@@H]3[C@H]4Oc5ccc(Oc6ccnc(N)c6)cc5[C@@H]34)cc2C(F)(F)F)CC1 [Compound 2.5, N-((1S,1aS,6bS)-5-((2-aminopyridin-4-yl)oxy)-1a,6b-dihydro-1H-cyclopropa[b]benzofuran-1-yl)-4-((4-ethylpiperazin-1-yl)methyl)-3-(trifluoromethyl)benzamide] | 58 nM | 4.1 nM | 0.47 nM | 0.82 nM
